In patent US9902696B2, “1,4-substituted piperidine derivatives” (Cephalon, Inc., priority 2015, dated 2018) one finds melting point and IC50 data, which are given here for 27 compounds.

The term melting point denotes the temperature, or range, at which the solid turns liquid. The IC50 is the concentration at which inhibition is half-maximal.

Data set [1] addresses T1, recombinant human baculovirus-expressed GST-tagged FASN (Homo sapiens, UniProt P49327).
T1 construct: GST
Kind of data set: FASN enzyme activity assay, fluorescence-based detection of CoA with CPM. The class given is biochemical. The conditions noted are these: 5 nM FASN, 150 μM NADPH, 10 μM acetyl-CoA, 25 μM malonyl-CoA, 90 minutes incubation; read-out: IC50 data for Additional Compounds of Formulae I-V(a): Activity. In outline: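 CoA product reacted with thiol-reactive CPM (diluted to 50 μM in 70% ethanol), read at 390/530 nm after 30 min. Preceding reaction: 90 min, 5 nM recombinant GST-FASN, 150 μM NADPH, 10 μM acetyl-CoA, 25 μM malonyl-CoA, pH 7.5 HEPES, 0.5% DMSO. IC50s fitted by nonlinear sigmoidal regression.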

T1 sequence (P49327 whole entry): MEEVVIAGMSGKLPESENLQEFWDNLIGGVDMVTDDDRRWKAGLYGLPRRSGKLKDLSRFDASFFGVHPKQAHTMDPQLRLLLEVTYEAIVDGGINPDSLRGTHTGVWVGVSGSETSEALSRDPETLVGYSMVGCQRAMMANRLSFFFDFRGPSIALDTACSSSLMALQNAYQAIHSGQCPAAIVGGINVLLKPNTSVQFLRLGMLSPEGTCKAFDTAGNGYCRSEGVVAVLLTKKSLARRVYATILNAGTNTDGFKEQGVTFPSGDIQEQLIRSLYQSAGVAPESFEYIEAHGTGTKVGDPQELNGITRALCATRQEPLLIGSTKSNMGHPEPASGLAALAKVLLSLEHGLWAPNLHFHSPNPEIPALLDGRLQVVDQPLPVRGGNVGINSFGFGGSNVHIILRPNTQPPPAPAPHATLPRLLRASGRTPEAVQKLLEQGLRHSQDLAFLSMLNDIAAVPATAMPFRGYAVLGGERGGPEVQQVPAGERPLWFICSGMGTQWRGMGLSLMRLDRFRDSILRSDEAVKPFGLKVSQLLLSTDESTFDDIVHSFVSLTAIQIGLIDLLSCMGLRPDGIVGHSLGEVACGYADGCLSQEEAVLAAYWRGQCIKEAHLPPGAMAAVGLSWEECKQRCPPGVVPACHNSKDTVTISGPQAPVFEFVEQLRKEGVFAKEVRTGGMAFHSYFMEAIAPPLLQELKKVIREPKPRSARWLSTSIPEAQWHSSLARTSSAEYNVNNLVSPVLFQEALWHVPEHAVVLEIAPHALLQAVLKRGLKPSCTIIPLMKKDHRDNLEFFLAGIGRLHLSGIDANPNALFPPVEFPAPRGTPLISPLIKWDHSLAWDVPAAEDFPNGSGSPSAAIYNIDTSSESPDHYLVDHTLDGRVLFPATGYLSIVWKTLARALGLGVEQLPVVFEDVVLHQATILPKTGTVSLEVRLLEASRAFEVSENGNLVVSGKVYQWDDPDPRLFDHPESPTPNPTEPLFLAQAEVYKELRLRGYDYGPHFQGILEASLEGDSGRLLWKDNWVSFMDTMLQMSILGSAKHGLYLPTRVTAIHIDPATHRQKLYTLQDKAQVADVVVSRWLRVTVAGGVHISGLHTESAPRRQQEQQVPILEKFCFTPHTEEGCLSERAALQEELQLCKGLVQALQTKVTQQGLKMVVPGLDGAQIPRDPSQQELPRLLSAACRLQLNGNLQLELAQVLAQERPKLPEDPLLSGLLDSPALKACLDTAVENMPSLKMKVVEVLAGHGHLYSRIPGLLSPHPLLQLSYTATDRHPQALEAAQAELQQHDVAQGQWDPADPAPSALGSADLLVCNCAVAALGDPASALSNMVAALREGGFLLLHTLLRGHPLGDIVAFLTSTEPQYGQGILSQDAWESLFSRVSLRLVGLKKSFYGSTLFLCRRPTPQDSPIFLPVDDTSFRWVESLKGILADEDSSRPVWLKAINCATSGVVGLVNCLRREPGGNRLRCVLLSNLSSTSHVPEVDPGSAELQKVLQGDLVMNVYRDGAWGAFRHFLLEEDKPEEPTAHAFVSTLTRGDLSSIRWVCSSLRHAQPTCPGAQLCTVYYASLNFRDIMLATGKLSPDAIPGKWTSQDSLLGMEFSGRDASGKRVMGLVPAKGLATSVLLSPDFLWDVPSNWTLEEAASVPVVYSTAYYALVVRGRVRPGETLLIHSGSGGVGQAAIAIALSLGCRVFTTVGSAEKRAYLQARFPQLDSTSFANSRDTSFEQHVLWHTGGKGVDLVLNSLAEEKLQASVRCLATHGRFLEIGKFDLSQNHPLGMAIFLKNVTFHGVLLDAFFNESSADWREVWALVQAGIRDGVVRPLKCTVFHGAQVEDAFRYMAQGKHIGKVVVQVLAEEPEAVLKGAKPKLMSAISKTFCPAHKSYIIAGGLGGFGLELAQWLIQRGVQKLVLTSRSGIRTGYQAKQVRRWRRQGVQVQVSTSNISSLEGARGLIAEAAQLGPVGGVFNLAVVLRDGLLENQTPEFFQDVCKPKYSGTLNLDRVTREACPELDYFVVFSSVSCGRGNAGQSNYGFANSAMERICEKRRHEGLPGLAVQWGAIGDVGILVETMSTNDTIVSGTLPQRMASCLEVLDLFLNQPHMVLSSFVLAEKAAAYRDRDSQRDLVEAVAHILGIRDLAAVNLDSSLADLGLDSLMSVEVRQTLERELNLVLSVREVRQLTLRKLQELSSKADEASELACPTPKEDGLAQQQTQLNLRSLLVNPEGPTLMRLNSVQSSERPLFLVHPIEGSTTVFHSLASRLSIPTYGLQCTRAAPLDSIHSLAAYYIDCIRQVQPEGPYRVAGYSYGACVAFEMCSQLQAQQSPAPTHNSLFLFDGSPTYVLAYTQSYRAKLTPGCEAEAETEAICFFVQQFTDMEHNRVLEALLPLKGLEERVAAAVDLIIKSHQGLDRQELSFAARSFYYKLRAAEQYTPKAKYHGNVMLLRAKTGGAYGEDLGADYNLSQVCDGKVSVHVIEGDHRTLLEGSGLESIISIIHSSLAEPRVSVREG

In turn, `CCCCNC(=O)N1CCC(Oc2ccc(-c3ccc4nccn4c3Cl)cc2)CC1` [Example 563, N-Butyl-4-[4-(5-chloroimidazo[1,2-a]pyridin-6-yl)phenoxy]piperidine-1-carboxamide] yielded a melting point of 171 to 177 °C. In addition, in data set [1], the IC50 was 1 to 99 nM.
Taken in the same sequence, the figures for `CCNC(=O)N1CCC(Oc2ccc(-c3ccc4nccn4c3Cl)cc2)CC1` [Example 564, 4-[4-(5-Chloroimidazo[1,2-a]pyridin-6-yl)phenoxy]-N-ethyl-piperidine-1-carboxamide] were 189 to 193 °C and 1000 to 10000 nM.
On the same counts, the results for `CC(C)CNC(=O)N1CCC(Oc2ccc(-c3ccc4nccn4c3Cl)cc2)CC1` [Example 565, 4-[4-(5-Chloroimidazo[1,2-a]pyridin-6-yl)phenoxy]-N-isobutyl-piperidine-1-carboxamide] are 201 °C and 100 to 999 nM.
Compound `CCCNC(=O)N1CCC(Oc2ccc(-c3ccc4nccn4c3Cl)cc2)CC1` [Example 566, 4-[4-(5-Chloroimidazo[1,2-a]pyridin-6-yl)phenoxy]-N-propyl-piperidine-1-carboxamide] gave a melting point of 184 °C. Further, the IC50 in data set [1] was 1 to 99 nM.
On the same counts, the results for `COCCNC(=O)N1CCC(Oc2ccc(-c3ccc4nccn4c3Cl)cc2)CC1` [Example 567, 4-[4-(5-Chloroimidazo[1,2-a]pyridin-6-yl)phenoxy]-N-(2-methoxyethyl)-piperidine-1-carboxamide] are 135 to 138 °C and 100 to 999 nM.
On the same counts, the results for `O=C(NCC1CC1)N1CCC(Oc2ccc(-c3ccc4nccn4c3Cl)cc2)CC1` [Example 568, 4-[4-(5-Chloroimidazo[1,2-a]pyridin-6-yl)phenoxy]-N-(cyclopropylmethyl)-piperidine-1-carboxamide] are 183 to 185 °C and 1000 to 10000 nM.
Taken in the same sequence, the figures for `CC(C)ONC(=O)N1CCC(Oc2ccc(-c3ccc4nccn4c3Cl)cc2)CC1` [Example 569, 4-[4-(5-Chloroimidazo[1,2-a]pyridin-6-yl)phenoxy]-N-isopropoxy-piperidine-1-carboxamide] were 175 °C and 100 to 999 nM.
Consider `CC(C)NC(=O)N1CCC(Oc2ccc(-c3ccc4nccn4c3Cl)cc2)CC1` [Example 570, 4-[4-(5-Chloroimidazo[1,2-a]pyridin-6-yl)phenoxy]-N-isopropyl-piperidine-1-carboxamide], for which the melting point came to 220 °C. In addition, the IC50 in data set [1] fell in the range of 1 to 99 nM.
On the same counts, the results for `CC(C)CONC(=O)N1CCC(Oc2ccc(-c3ccc4nccn4c3Cl)cc2)CC1` [Example 571, 4-[4-(5-Chloroimidazo[1,2-a]pyridin-6-yl)phenoxy]-N-isobutoxy-piperidine-1-carboxamide] are 157 °C and 1000 to 10000 nM.
On the same counts, the results for `CC(C)CCNC(=O)N1CCC(Oc2ccc(-c3ccc4nccn4c3Cl)cc2)CC1` [Example 572, 4-[4-(5-Chloroimidazo[1,2-a]pyridin-6-yl)phenoxy]-N-isopentyl-piperidine-1-carboxamide] are 185 °C and 1000 to 10000 nM.
In turn, `CCCONC(=O)N1CCC(Oc2ccc(-c3ccc4cccnc4c3C)cc2)CC1` [Example 574, 4-[4-(8-Methyl-7-quinolyl)phenoxy]-N-propoxy-piperidine-1-carboxamide] registered a melting point of 75 °C. For the same compound, in data set [1], the IC50 was 1 to 99 nM.
On the same counts, the results for `O=C(NO)N1CCC(Oc2ccc(-c3ccc4nccn4c3Cl)cc2)CC1` [Example 575, 4-[4-(5-Chloroimidazo[1,2-a]pyridin-6-yl)phenoxy]piperidine-1-carbohydroxamic acid] are 232 °C and 1 to 99 nM.
As to `NC(=O)N1CCC(Oc2ccc(-c3ccc4nccn4c3Cl)cc2)CC1` [Example 577, 4-[4-(5-Chloroimidazo[1,2-a]pyridin-6-yl)phenoxy]piperidine-1-carboxamide], the melting point is 204 °C. Also, the IC50 in data set [1] fell in the range of 100 to 999 nM.
Compound `CCNC(=O)N1CCC(Oc2ccc(-c3ccc4c(C)nccc4c3)cc2)CC1` [Example 578, N-Ethyl-4-[4-(1-methyl-6-isoquinolyl)phenoxy]piperidine-1-carboxamide] yielded a melting point of 211 °C. In data set [1], the IC50 fell in the range of 1000 to 10000 nM.
Taken in the same sequence, the figures for `CCCNC(=O)N1CCC(Oc2ccc(-c3ccc4c(C)nccc4c3)cc2)CC1` [Example 579, 4-[4-(1-Methyl-6-isoquinolyl)phenoxy]-N-propyl-piperidine-1-carboxamide] were 181 °C and 100 to 999 nM.
Taken in the same sequence, the figures for `Cc1nccc2cc(-c3ccc(OC4CCN(C(=O)NCC(C)C)CC4)cc3)ccc12` [Example 580, N-Isobutyl-4-[4-(1-methyl-6-isoquinolyl)phenoxy]piperidine-1-carboxamide] were 157 °C and 1 to 99 nM.
Take `Cc1nccc2cc(-c3ccc(OC4CCN(C(N)=O)CC4)cc3)ccc12` [Example 581, 4-[4-(1-Methyl-6-isoquinolyl)phenoxy]piperidine-1-carboxamide]: the melting point was 232 °C. Moreover, in data set [1], the half-maximal inhibitory concentration (IC50) lay within 1 to 99 nM.
Consider `Cc1nccc2cc(-c3ccc(OC4CCN(C(=O)NCC5CC5)CC4)cc3)ccc12` [Example 582, N-(Cyclopropylmethyl)-4-[4-(1-methyl-6-isoquinolyl)phenoxy]piperidine-1-carboxamide], for which the melting point came out at 188 °C. Further, in data set [1], the IC50 is 1000 to 10000 nM.
Take `Cc1nccc2cc(-c3ccc(OC4CCN(C(=O)NOC(C)C)CC4)cc3)ccc12` [Example 583, N-Isopropoxy-4-[4-(1-methyl-6-isoquinolyl)phenoxy]piperidine-1-carboxamide]: the melting point came to 189 °C. Further, the IC50 in data set [1] lay within 1 to 99 nM.
On the same counts, the results for `CCCONC(=O)N1CCC(Oc2ccc(-c3ccc4c(C)nccc4c3)cc2)CC1` [Example 584, 4-[4-(1-Methyl-6-isoquinolyl)phenoxy]-N-propoxypiperidine-1-carboxamide] are 165 °C and 1 to 99 nM.
In the case of `Cc1nccc2cc(-c3ccc(OC4CCN(C(=O)NO)CC4)cc3)ccc12` [Example 585, 4-[4-(1-Methyl-6-isoquinolyl)phenoxy]piperidine-1-carbohydroxamic acid], the melting point was found to be 185 °C. Also, the IC50 in data set [1] lay in the range of 100 to 999 nM.
In the case of `CCONC(=O)N1CCC(Oc2ccc(-c3ccc4c(C)nccc4c3)cc2)CC1` [Example 586, N-Ethoxy-4-[4-(1-methyl-6-isoquinolyl)phenoxy]piperidine-1-carboxamide], the melting point turned out to be 208 °C. The IC50 in data set [1] lay within 1000 to 10000 nM.
Taken in the same sequence, the figures for `CCONC(=O)N1CCC(Oc2ccc(-c3cnc4ccccc4c3C)cc2)CC1` [Example 587, N-Ethoxy-4-[4-(4-methyl-3-quinolyl)phenoxy]piperidine-1-carboxamide] were 152 °C and 1 to 99 nM.
In turn, `Cc1c(-c2ccc(OC3CCN(C(=O)NOC(C)C)CC3)cc2)cnc2ccccc12` [Example 588, N-Isopropoxy-4-[4-(4-methyl-3-quinolyl)phenoxy]piperidine-1-carboxamide] gave a melting point of 80 °C. The IC50 in data set [1] was in the range of 1 to 99 nM.
Taken in the same sequence, the figures for `CCCONC(=O)N1CCC(Oc2ccc(-c3cnc4ccccc4c3C)cc2)CC1` [Example 589, 4-[4-(4-Methyl-3-quinolyl)phenoxy]-N-propoxy-piperidine-1-carboxamide] were 75 °C and 1 to 99 nM.
For the compound `Cc1c(-c2ccc(OC3CCN(C(=O)NCC(C)C)CC3)cc2)cnc2ccccc12` [Example 590, N-Isobutyl-4-[4-(4-methyl-3-quinolyl)phenoxy]piperidine-1-carboxamide], the melting point stood at 153 °C. Further, the IC50 in data set [1] was 1 to 99 nM.
Taken in the same sequence, the figures for `CCCNC(=O)N1CCC(Oc2ccc(-c3cnc4ccccc4c3C)cc2)CC1` [Example 591, 4-[4-(4-Methyl-3-quinolyl)phenoxy]-N-propyl-piperidine-1-carboxamide] were 171 °C and 1 to 99 nM.
